Assays:
[1] = biological target: GDP-bound NRAS wild-type protein (Homo sapiens, UniProt P01111); test: Binding to NRAS by surface plasmon resonance (SPR), Single Cycle Kinetics; conditions: for NRAS/KRAS (ratio of KD value with respect to NRAS to KD value with respect to KRAS): GDP-bound NRAS wild-type vs GDP-bound KRAS wild-type
[2] = biological target: GDP-bound HRAS wild-type protein (Homo sapiens, UniProt P01112); test: Binding to HRAS by surface plasmon resonance (SPR), Single Cycle Kinetics; conditions: for HRAS/KRAS (ratio of KD value with respect to HRAS to KD value with respect to KRAS): GDP-bound HRAS wild-type vs GDP-bound KRAS wild-type
[3] = SPR, GDP-bound wild-type proteins

GDP-bound HRAS wild-type protein, sequence (P01112 whole entry): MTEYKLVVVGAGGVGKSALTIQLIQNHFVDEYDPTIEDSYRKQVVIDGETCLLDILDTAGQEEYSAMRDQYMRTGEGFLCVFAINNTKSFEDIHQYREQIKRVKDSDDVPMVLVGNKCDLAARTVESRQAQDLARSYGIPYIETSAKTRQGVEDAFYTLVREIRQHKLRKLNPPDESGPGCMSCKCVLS
GDP-bound NRAS wild-type protein, sequence (P01111 whole entry): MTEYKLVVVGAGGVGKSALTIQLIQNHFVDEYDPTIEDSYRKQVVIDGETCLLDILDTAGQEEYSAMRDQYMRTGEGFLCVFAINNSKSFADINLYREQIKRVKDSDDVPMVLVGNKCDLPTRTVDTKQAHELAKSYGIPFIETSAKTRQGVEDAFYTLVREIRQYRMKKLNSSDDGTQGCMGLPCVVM

## CCC(CC)[C@H]1C(=O)N(C)[C@H](C(=O)N(C)C)CC(=O)N(C)[C@@H](COC)C(=O)N[C@@H]([C@@H](C)CC)C(=O)N(C2CC2)CC(=O)N(C)[C@H]2C/C=C\CCN(C2=O)[C@@H](CC2CCC(F)(F)CC2)C(=O)N(C)CC(=O)N[C@@H](CCc2cc(F)c(C(F)(F)F)c(F)c2)C(=O)N2C[C@H](OC3CCCC3)C[C@H]2C(=O)NC2(CC(C)(C)C2)C(=O)N1C [PP2627]
[1]; class symbols
  NRAS/KRAS (ratio of KD value with respect to GDP-bound NRAS wild-type protein to KD value with respect to KRAS): A (a compound having 10 or more and less than 20 is denoted as A)
[2]; class symbols
  HRAS/KRAS (ratio of KD value with respect to GDP-bound HRAS wild-type protein to KD value with respect to KRAS): A (a compound having 10 or more and less than 20 is denoted as A)

## CCC[C@H]1C(=O)N[C@@H](C(CC)CC)C(=O)N(C)CC(=O)N(C)[C@H]2C/C=C\CCN(C2=O)[C@@H](Cc2ccc(C)cc2)C(=O)N(C)CC(=O)N[C@@H](CCc2ccc(C(F)(F)F)c(Cl)c2)C(=O)N2C[C@H](OCC)C[C@H]2C(=O)NC2(CC(C)(C)C2)C(=O)N(C)[C@@H](CC(C)(C)C)C(=O)N(C)[C@H](C(=O)N(C)C)CC(=O)N1C [PP2207]
[1]; SPR
  NRAS/KRAS (ratio of KD value with respect to NRAS to KD value with respect to KRAS): A (a compound having 10 or more and less than 20 is denoted as A)
[2]; SPR
  HRAS/KRAS (ratio of KD value with respect to HRAS to KD value with respect to KRAS): A (a compound having 10 or more and less than 20 is denoted as A)

## CCCOC[C@H]1C(=O)N[C@@H]([C@@H](C)CC)C(=O)N2CCC[C@H]2C(=O)N(C)[C@H]2C/C=C\CCN(C2=O)[C@@H](Cc2ccc(C)cc2)C(=O)N(C)CC(=O)N[C@@H](CCc2cc(F)c(C(F)(F)F)c(F)c2)C(=O)N2C[C@H](C)C[C@H]2C(=O)NC2(CC(C)(C)C2)C(=O)N(C)[C@@H](C2CCCC2)C(=O)N(C)[C@H](C(=O)N(C)CC)CC(=O)N1C [PP2430]
[1]; SPR
  NRAS/KRAS (ratio of KD value with respect to NRAS to KD value with respect to KRAS): AA (a compound having 20 or more is denoted as AA)
[2]; SPR
  HRAS/KRAS (ratio of KD value with respect to HRAS to KD value with respect to KRAS): A (a compound having 10 or more and less than 20 is denoted as A)

## CCO[C@@H]1C[C@H]2C(=O)NC3(CC(C)(C)C3)C(=O)N(C)[C@@H](C(CC)CC)C(=O)N(C)[C@H](C(=O)N3CCCCC3)CC(=O)N(C)[C@@H](COC)C(=O)N[C@@H]([C@@H](C)CC)C(=O)N(C)CC(=O)N(C)[C@H]3C/C=C\CCN(C3=O)[C@@H](Cc3ccc(C(F)(F)F)cc3)C(=O)N(C)CC(=O)N[C@@H](CCc3ccc(Cl)c(Cl)c3)C(=O)N2C1 [PP2610]
[1]; class symbols
  NRAS/KRAS (ratio of KD value with respect to GDP-bound NRAS wild-type protein to KD value with respect to KRAS): AA (a compound having 20 or more is denoted as AA)
[2]; class symbols
  HRAS/KRAS (ratio of KD value with respect to GDP-bound HRAS wild-type protein to KD value with respect to KRAS): A (a compound having 10 or more and less than 20 is denoted as A)

## CCC[C@H]1C(=O)N[C@@H]([C@@H](C)CC)C(=O)N(C)CC(=O)N(C)[C@H]2C/C=C\CCN(C2=O)[C@@H](Cc2ccc(C(F)(F)F)cc2)C(=O)N(C)CC(=O)N[C@@H](CCc2ccc(C(F)(F)F)c(OC)c2)C(=O)N2C[C@@H](C)C[C@H]2C(=O)N(C)C2(CCC2)C(=O)N(C)[C@@H](C2CCCC2)C(=O)N(C)[C@H](C(=O)N(C)C)CC(=O)N1C [PP2358]
[1]; SPR
  NRAS/KRAS (ratio of KD value with respect to NRAS to KD value with respect to KRAS): A (a compound having 10 or more and less than 20 is denoted as A)
[2]; SPR
  HRAS/KRAS (ratio of KD value with respect to HRAS to KD value with respect to KRAS): B (a compound having 3 or more and less than 10 is denoted as B)

## CCO[C@@H]1C[C@H]2C(=O)NC3(CCC3)C(=O)N(C)[C@@H](C3CCCC3)C(=O)N(C)[C@H](C(=O)N(C)C)CC(=O)N(C)[C@@H](Cc3cccnc3)C(=O)N[C@@H]([C@@H](C)CC)C(=O)N(C)CC(=O)N(C)[C@H]3CCCCCN(C3=O)[C@@H](Cc3ccc(C(F)(F)F)cc3)C(=O)N(C)CC(=O)N[C@@H](CCc3cc(F)c(C(F)(F)F)c(F)c3)C(=O)N2C1 [PP0673]
[1]; SPR
  NRAS/KRAS (ratio of KD value with respect to GDP-bound NRAS wild-type protein to KD value with respect to KRAS): B (a compound having 3 or more and less than 10 is denoted as B)
[2]; SPR
  HRAS/KRAS (ratio of KD value with respect to GDP-bound HRAS wild-type protein to KD value with respect to KRAS): B (a compound having 3 or more and less than 10 is denoted as B)

## CCC[C@H]1C(=O)N[C@@H]([C@@H](C)CC)C(=O)N(C2CC2)CC(=O)N(C)[C@H]2C/C=C\CCN(C2=O)[C@@H](CC2CCC(F)(F)CC2)C(=O)N(C)CC(=O)N[C@@H](CCc2ccc(C(F)(F)F)c(OC)c2)C(=O)N2C[C@H](OCC)C[C@H]2C(=O)N(C)C2(CCC2)C(=O)N(C)[C@@H](C2CCCC2)C(=O)N(C)[C@H](C(=O)N(C)C)CC(=O)N1C [PP2352]
[1]; SPR
  NRAS/KRAS (ratio of KD value with respect to NRAS to KD value with respect to KRAS): A (a compound having 10 or more and less than 20 is denoted as A)
[2]; SPR
  HRAS/KRAS (ratio of KD value with respect to HRAS to KD value with respect to KRAS): A (a compound having 10 or more and less than 20 is denoted as A)

## CC[C@H](C)[C@@H]1NC(=O)[C@@H]2CCC/C=C/c3ccc(cc3)C[C@@H](C(=O)N(C)CC(=O)N[C@@H](CCc3ccc(Cl)c(Cl)c3)C(=O)N3C[C@H](OC4CCCC4)C[C@H]3C(=O)NC3(CC(C)(C)C3)C(=O)N(C)[C@@H](C3CCCC3)C(=O)N(C)[C@H](C(=O)N3CCCC3)CC(=O)N2C)N2CC/C=C\C[C@@H](C2=O)N(C)C(=O)CN(C)C1=O [PP3054]
[1]; [3]
  NRAS/KRAS (ratio of KD value with respect to GDP-bound NRAS wild-type protein to KD value with respect to KRAS): A (a compound having 10 or more and less than 20 is denoted as A)
[2]; [3]
  HRAS/KRAS (ratio of KD value with respect to GDP-bound HRAS wild-type protein to KD value with respect to KRAS): A (a compound having 10 or more and less than 20 is denoted as A)

## CC[C@H](C)[C@@H]1NC(=O)[C@H](CC(C)C)N(C)C(=O)C[C@@H](C(=O)N2CCOCC2)N(C)C(=O)[C@H](C2CCCC2)N(C)C(=O)C2(CCCCC2)NC(=O)[C@@H]2CCCN2C(=O)[C@H](CCc2cc(F)c(C(F)(F)F)c(F)c2)NC(=O)CN(C)C(=O)[C@H](Cc2ccc(C(F)(F)F)cc2)N2CCCCC[C@@H](C2=O)N(C)C(=O)CN(C)C1=O [PP0498]
[1]; SPR
  NRAS/KRAS (ratio of KD value with respect to GDP-bound NRAS wild-type protein to KD value with respect to KRAS): B (a compound having 3 or more and less than 10 is denoted as B)
[2]; SPR
  HRAS/KRAS (ratio of KD value with respect to GDP-bound HRAS wild-type protein to KD value with respect to KRAS): B (a compound having 3 or more and less than 10 is denoted as B)

## CCCO[C@@H]1C[C@H]2C(=O)NC3(CCC3)C(=O)N(C)[C@@H](C3CCCC3)C(=O)N(C)[C@H](C(=O)N3CCOCC3)CC(=O)N(C)[C@@H](COC)C(=O)N[C@@H]([C@@H](C)CC)C(=O)N(C)CC(=O)N(C)[C@H]3CCCCCN(C3=O)[C@@H](Cc3ccc(C(F)(F)F)cc3)C(=O)N(C)CC(=O)N[C@@H](CCc3cc(F)c(C(F)(F)F)c(F)c3)C(=O)N2C1 [PP0838]
[1]; KD ratio, SPR
  NRAS/KRAS (ratio of KD value with respect to NRAS to KD value with respect to KRAS): B (a compound having 3 or more and less than 10 is denoted as B)
[2]; KD ratio, SPR
  HRAS/KRAS (ratio of KD value with respect to HRAS to KD value with respect to KRAS): B (a compound having 3 or more and less than 10 is denoted as B)

## CCC[C@H]1C(=O)N[C@@H]([C@@H](C)CC)C(=O)N(C)CC(=O)N(C)[C@H]2C/C=C\CCN(C2=O)[C@@H](Cc2ccc(C)cc2)C(=O)N(C)CC(=O)N[C@@H](CCc2cc(F)c(C(F)(F)F)c(F)c2)C(=O)N2C[C@H](OCC)C[C@H]2C(=O)NC2(CC(C)(C)C2)C(=O)N(C)[C@@H](CC2CCC2)C(=O)N(C)[C@H](C(=O)N(C)C)CC(=O)N1C [PP2751]
[1]; class symbols
  NRAS/KRAS (ratio of KD value with respect to GDP-bound NRAS wild-type protein to KD value with respect to KRAS): A (a compound having 10 or more and less than 20 is denoted as A)
[2]; class symbols
  HRAS/KRAS (ratio of KD value with respect to GDP-bound HRAS wild-type protein to KD value with respect to KRAS): A (a compound having 10 or more and less than 20 is denoted as A)

## CCO[C@@H]1C[C@H]2C(=O)NC3(CCCC3)C(=O)N(C)[C@@H](C3CCCC3)C(=O)N(C)[C@H](C(=O)N(C)C)CC(=O)N(C)[C@@H](CC)C(=O)N[C@@H]([C@@H](C)CC)C(=O)N(C)CC(=O)N(C)[C@H]3CC(C)=C(C)CN(C3=O)[C@@H](Cc3ccc(C(F)(F)F)cc3)C(=O)N(C)CC(=O)N[C@@H](CCc3cc(F)c(C(F)(F)F)c(F)c3)C(=O)N2C1 [PP1050]
[1]; KD ratio, SPR
  NRAS/KRAS (ratio of KD value with respect to NRAS to KD value with respect to KRAS): C (A compound having a KD ratio of 0.1 or more and less than 3 is denoted as C)
[2]; KD ratio, SPR
  HRAS/KRAS (ratio of KD value with respect to HRAS to KD value with respect to KRAS): C (A compound having a KD ratio of 0.1 or more and less than 3 is denoted as C)

## CCO[C@@H]1C[C@H]2C(=O)NC3(CCC3)C(=O)N(C)[C@@H](C(CC)CC)C(=O)N(C)[C@H](C(=O)N3CCCC3)CC(=O)N(C)[C@H]3CCC/C=C/c4ccc(cc4)C[C@@H](C(=O)N(C)CC(=O)N[C@@H](CCc4ccc(Cl)c(Cl)c4)C(=O)N2C1)N1CC/C=C\C[C@@H](C1=O)N(C)C(=O)CN(C1CC1)C(=O)[C@H]([C@@H](C)CC)NC3=O [PP3040]
[1]; [3]
  NRAS/KRAS (ratio of KD value with respect to GDP-bound NRAS wild-type protein to KD value with respect to KRAS): AA (a compound having 20 or more is denoted as AA)
[2]; [3]
  HRAS/KRAS (ratio of KD value with respect to GDP-bound HRAS wild-type protein to KD value with respect to KRAS): A (a compound having 10 or more and less than 20 is denoted as A)

## CCO[C@@H]1C[C@H]2C(=O)NC3(CC(C)(C)C3)C(=O)N(C)[C@@H](C(CC)CC)C(=O)N(C)[C@H](C(=O)N(C)C)CC(=O)N(C)[C@@H](C(C)C)C(=O)N[C@@H]([C@@H](C)CC)C(=O)N(C)CC(=O)N(C)[C@H]3C/C=C\CCN(C3=O)[C@@H](Cc3ccc(C(F)(F)F)cc3)C(=O)N(C)CC(=O)N[C@@H](CCc3ccc(C(F)(F)F)c(Cl)c3)C(=O)N2C1 [PP2140]
[1]; SPR
  NRAS/KRAS (ratio of KD value with respect to NRAS to KD value with respect to KRAS): AA (a compound having 20 or more is denoted as AA)
[2]; SPR
  HRAS/KRAS (ratio of KD value with respect to HRAS to KD value with respect to KRAS): A (a compound having 10 or more and less than 20 is denoted as A)

## CC[C@H](C)[C@@H]1NC(=O)[C@H](CC(C)C)N(C)C(=O)C[C@@H](C(=O)N2C3CCC2COC3)N(C)C(=O)[C@H](C2CCCC2)N(C)C(=O)C2(CCCC2)NC(=O)[C@@H]2CCCN2C(=O)[C@H](CCc2cc(F)c(C(F)(F)F)c(F)c2)NC(=O)CN(C)C(=O)[C@H](Cc2ccc(C(F)(F)F)cc2)N2CCCC[C@@H](C2=O)N(C)C(=O)CN(C)C1=O [PP0573]
[1]; SPR
  NRAS/KRAS (ratio of KD value with respect to GDP-bound NRAS wild-type protein to KD value with respect to KRAS): B (a compound having 3 or more and less than 10 is denoted as B)
[2]; SPR
  HRAS/KRAS (ratio of KD value with respect to GDP-bound HRAS wild-type protein to KD value with respect to KRAS): B (a compound having 3 or more and less than 10 is denoted as B)
